According to patent US8029764B2, “Methods for detection of colorectal cancer” (The Johns Hopkins University, priority 2001, dated 2011):

System: colorectal tissue transcripts
Test: SAGE of normal, adenoma and cancer colorectal tissue (transcript tag counts)
Design: species or system human
Procedure, shortened: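 Tag counts reflect transcript abundance, each mRNA represented by a 15-base tag near its 3′ end. Excluding MHC tags, linkers and duplicate ditags, libraries were compared statistically: two each of normal epithelium, FAP-derived adenomas (>70% neoplastic) and carcinomas.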

[1] = normal colorectal tissue library 1
[2] = normal colorectal tissue library 2

Sequence	AD1 (SAGE tag count) (SAGE library AD1)	AD2 (SAGE tag count) (SAGE library AD2)	CA1 (SAGE tag count) (SAGE library CA1)	CA2 (SAGE tag count) (SAGE library CA2)	NC1 (SAGE tag count) (SAGE library NC1)	NC2 (SAGE tag count) (SAGE library NC2)	AD1 (SAGE tag count) (adenoma library 1)	AD2 (SAGE tag count) (adenoma library 2)	CA1 (SAGE tag count) (cancer library 1)	CA2 (SAGE tag count) (cancer library 2)	NC1 (SAGE tag count) [1]	NC2 (SAGE tag count) [2]
AGGTGACTGG (chemistry not fully specified)	0	0	0	0	10	14	–	–	–	–	–	–
GCTGCCCTTG (chemistry not fully specified)	13	6	6	18	44	6	–	–	–	–	–	–
TAGGATGGGG (chemistry not fully specified)	–	–	–	–	–	–	4	7	6	1	24	30
GCTCTTCCCC (chemistry not fully specified; the letters are possibly those of the target site)	1	2	2	0	9	21	–	–	–	–	–	–
TTTCCTCTCA (chemistry not fully specified)	–	–	–	–	–	–	6	2	4	3	21	8
CGGGAGTCGG (chemistry not fully specified)	13	2	9	1	28	30	–	–	–	–	–	–
GGATGGCTTA (chemistry not fully specified)	2	1	1	1	25	5	–	–	–	–	–	–
GTAGCAGGTG (chemistry not fully specified)	11	7	7	7	24	27	–	–	–	–	–	–
GCCACATACT (chemistry not fully specified)	0	0	0	0	3	9	–	–	–	–	–	–
GGAAGAGCAC (chemistry not fully specified)	1	1	2	5	21	11	–	–	–	–	–	–
ATGCGGAGTC (chemistry not fully specified)	5	3	2	4	14	13	–	–	–	–	–	–
GCCAGACACC (chemistry not fully specified)	3	4	1	2	19	9	–	–	–	–	–	–
TGCAGCACGA (chemistry not fully specified)	–	–	–	–	–	–	5	30	24	16	6	185
CTGGGCCTCT (chemistry not fully specified)	2	2	3	3	22	22	–	–	–	–	–	–
CCCGCCTCTT (chemistry not fully specified)	3	3	16	1	0	40	–	–	–	–	–	–
GCTGGCCCCG (chemistry not fully specified)	0	0	0	1	5	11	–	–	–	–	–	–
ATGGCACGGA (chemistry not fully specified; the letters are possibly those of the target site)	1	1	3	0	6	21	–	–	–	–	–	–
AATAAAGGCT (chemistry not fully specified)	3	7	3	4	25	11	–	–	–	–	–	–
ATACTCCACT (chemistry not fully specified)	0	0	10	3	82	59	–	–	–	–	–	–

Sequence	AD1 (SAGE tag count) (SAGE library AD1)	AD2 (SAGE tag count) (SAGE library AD2)	CA1 (SAGE tag count) (SAGE library CA1)	CA2 (SAGE tag count) (SAGE library CA2)	NC1 (SAGE tag count) (SAGE library NC1)	NC2 (SAGE tag count) (SAGE library NC2)	AD1 (SAGE tag count) (adenoma library 1)	AD2 (SAGE tag count) (adenoma library 2)	CA1 (SAGE tag count) (cancer library 1)	CA2 (SAGE tag count) (cancer library 2)	NC1 (SAGE tag count) [1]	NC2 (SAGE tag count) [2]
TAAGGCCTTT (chemistry not fully specified; the letters are possibly those of the target site)	–	–	–	–	–	–	1	0	0	1	6	9
CCTGGAAGAG (chemistry not fully specified)	11	4	12	16	30	26	–	–	–	–	–	–
GACCAGCCCA (chemistry not fully specified)	3	2	12	5	23	21	–	–	–	–	–	–
GCTGTGCCTG (chemistry not fully specified)	2	4	11	8	36	42	–	–	–	–	–	–
CAGTGCGTTC (chemistry not fully specified)	0	0	3	0	12	3	–	–	–	–	–	–
CGGTGGGACC (target site or template, no part of the molecule; chemistry not given here)	1	1	3	3	7	14	–	–	–	–	–	–
TTTTCTGCAT (chemistry not fully specified)	–	–	–	–	–	–	1	0	1	2	8	7
CTTGACATAC (chemistry not fully specified)	4	4	0	0	18	20	–	–	–	–	–	–
CCCAACGCGC (chemistry not fully specified)	3	5	0	2	106	1	–	–	–	–	–	–
GCCCAGTGGC (chemistry not fully specified)	8	15	2	5	51	0	–	–	–	–	–	–
GAGCACCGTG (chemistry not fully specified)	1	0	0	1	7	4	–	–	–	–	–	–
ATGCGGGAGA (chemistry not fully specified)	15	22	5	6	38	39	–	–	–	–	–	–
TTGGACCTGG (chemistry not fully specified)	–	–	–	–	–	–	7	18	12	16	33	31
TTCTGGTGCG (chemistry not fully specified)	–	–	–	–	–	–	0	0	1	0	8	2
CTTGATTCCC (chemistry not fully specified)	5	0	2	5	26	9	–	–	–	–	–	–
CAAGAGTTTC (chemistry not fully specified)	0	0	0	0	14	2	–	–	–	–	–	–
CCTGCCCCCC (chemistry not fully specified)	6	3	11	4	20	30	–	–	–	–	–	–
TGCAGCGCCT (chemistry not fully specified; the letters are possibly those of the target site)	–	–	–	–	–	–	1	1	1	1	16	9
